Columns and labels:
S. aureus 101 [1] = test: MIC determination; assay type: cell-based, Staphylococcus aureus; conditions: for Minimum inhibitory concentrations (MIC): S. aureus 101, 18 hours at 37° C.
Experimental: (§1) Minimum inhibitory concentration (MIC) determination.
(§2) In order to choose the appropriate concentrations to be tested in the checkerboard experiments, minimum inhibitory concentrations (MICs) were determined first. […] Table 6) in microtiter plates. Stock solutions (10 mg/ml) of reference antibiotics were prepared in DMSO (except for tobramycin, gentamicin, lomefloxacin, tetracycline) and stored at 4° C. The bacteria were grown in Mueller-Hinton Broth (BBL Mueller-Hinton Broth II, cation adjusted). S. pneumoniae was grown in Mueller-Hinton Broth supplemented with 5% (v/v) lysed sheep blood. For the growth of H. influenzae HTM (Haemophilus test medium) was used containing Mueller-Hinton broth, yeast extract ([…], Difco) and supplemented with NAD and hematin (HTM Supplement, Oxoid SR0158E). M. catarrhalis was grown in Brain Heart Infusion medium (Oxoid). The bacteria were incubated for 18 hours at 37° C. in ambient air except for S. pneumoniae, H. influenzae and M. catarrhalis, which were incubated in the presence of 5% CO2. The MIC was determined as the lowest concentration of an individual drug that lead to no visible growth.

S. pneumoniae 1/1 [2] = test: MIC determination; assay type: cell-based, Streptococcus pneumoniae; conditions: S. pneumoniae 1/1, 18 hours at 37° C., 5% CO2
Experimental: as §1, §2

[3] = tested on: Haemophilus influenzae ATCC 49766; test: MIC determination; assay type: cell-based; conditions: H. Influenza 49766, 18 hours at 37° C., 5% CO2
Experimental: as §1, §2

[4] = tested on: Klebsiella pneumoniae ATCC 33495; test: MIC determination; assay type: cell-based; conditions: K. pneumonia 33495, 18 hours at 37° C.
Experimental: as §1, §2

[5] = tested on: Moraxella catarrhalis RA 21; test: MIC determination; assay type: cell-based; conditions: M. catarrhalis RA 21, 18 hours at 37° C., 5% CO2
Experimental: as §1, §2

[6] = tested on: Staphylococcus aureus ATCC 25923; test: MIC determination; assay type: cell-based; conditions: S. aureus 25923, 18 hours at 37° C.
Experimental: as §1, §2

[7] = tested on: Streptococcus pneumoniae ATCC 49619; test: MIC determination; assay type: cell-based; conditions: S. pneumoniae 49619, 18 hours at 37° C., 5% CO2
Experimental: as §1, §2

[8] = tested on: Haemophilus influenzae ATCC 49766; test: checkerboard synergy assay with iclaprim; assay type: cell-based; conditions: antibiotic in combination with iclaprim; H. influenzae 49766
Experimental: (§3) The synergistic potential of iclaprim against Gram-positive and Gram-negative bacteria was determined using the checkerboard assay as described in Eliopoulos GM and Moellering, Jr. RC (1991), Antimicrobial combinations, pp. 432-492, in V. Lorian (ed.), Antibiotics in laboratory medicine, 3rd Ed., The Williams & Wilkins Co., Baltimore, the entire disclosure of which is herein incorporated by reference, allowing multiple test concentrations of iclaprim to be assayed in the presence of various concentrations of the other antibiotic in microtiter plates. The same growth media and conditions were used as described in 3.2 below.
(§4) Two different dilutions were used for iclaprim depending on the MIC determined for the bacterium. […] Iclaprim and the other antibiotic being tested were also dispensed alone in the last row and in the last column, respectively, as controls.
(§5) The Fractional Inhibitory Concentrations (FIC) for each added agent were calculated and used to determine the sum of FIC (ΣFIC) indicative of the synergistic potential of a given combination as described in Veyssier P. (1999), Inhibiteurs de la dihydrofolate reductase, nitrohétérocycles (furanes) et 8-hydroxyquinoleines, pp. 995-1027, in A. Bryskier (ed.), Antibiotiques agents antibatériens et antifongiques, 1st Ed., Ellipses Edition Marketing SA, Paris, the entire disclosure of which is herein incorporated by reference. Synergy was defined whereby the ΣFIC was <0.5, indifference (no synergy nor antagonism) whereby ΣFIC was ≥0.5 but ≤4, and antagonism whereby ΣFIC was >4. Additivity as a special form of indifference was defined whereby the ΣFIC was ≥0.5 but <1, for example as described in Stevens, D L et al. (1998), In vitro antimicrobial effects of various combinations of penicillin and clindamycin against four strains of Streptococcus pyogenes, J. Antimicrob. Chemother. 42: 1266-1268, the entire disclosure of which is herein incorporated by reference.

[9] = tested on: Klebsiella pneumoniae ATCC 33495; test: checkerboard synergy assay with iclaprim; assay type: cell-based; conditions: antibiotic in combination with iclaprim; K. pneumoniae 33495
Experimental: as §3, §4, §5

[10] = tested on: Moraxella catarrhalis RA 21; test: checkerboard synergy assay with iclaprim; assay type: cell-based; conditions: antibiotic in combination with iclaprim; M. catarrhalis RA 21
Experimental: as §3, §4, §5

[11] = tested on: Staphylococcus aureus ATCC 25923; test: checkerboard synergy assay with iclaprim; assay type: cell-based; conditions: antibiotic in combination with iclaprim; S. aureus 25923
Experimental: as §3, §4, §5

[12] = tested on: Streptococcus pneumoniae ATCC 49619; test: checkerboard synergy assay with iclaprim; assay type: cell-based; conditions: antibiotic in combination with iclaprim; S. pneumoniae 49619
Experimental: as §3, §4, §5

S. aureus 101 [13] = test: checkerboard synergy assay with iclaprim; assay type: cell-based, Staphylococcus aureus; conditions: antibiotic in combination with iclaprim
Experimental: as §3, §4, §5

S. pneumoniae 1/1 [14] = test: checkerboard synergy assay with iclaprim; assay type: cell-based, Streptococcus pneumoniae; conditions: antibiotic in combination with iclaprim
Experimental: as §3, §4, §5

In the case of `CC1(C)S[C@@H]2[C@H](NC(=O)Cc3ccccc3)C(=O)N2[C@H]1C(=O)O` [Penicillin G], the “Minimum inhibitory concentrations (MIC)” value (S. aureus 101 [1]) is reported as 128 µg/mL, the “Minimum inhibitory concentrations (MIC)” value (S. pneumoniae 1/1 [2]) is reported as 4 µg/mL and the “Minimum inhibitory concentrations (MIC)” value [3] is reported as 0.25 µg/mL. The “Minimum inhibitory concentrations (MIC)” value [4] was 128 µg/mL, the “Minimum inhibitory concentrations (MIC)” value [5] was 16 µg/mL and the “Minimum inhibitory concentrations (MIC)” value [6] was 0.031 µg/mL. For the same compound, the “Minimum inhibitory concentrations (MIC)” value [7] was 0.25 µg/mL, the “Con (Conclusion)” value [8] was “Ind (Indifference (Ind))” and the “Σ FIC” value [8] was 1.03-1.50. For the same compound, the “Con (Conclusion)” value [9] was “Ad (Additivity (Ad))”, the “Σ FIC” value [9] was 0.52-1.25 and the “Con (Conclusion)” value [10] was “Ind (Indifference (Ind))”. The “Σ FIC” value [10] was 1.13-1.50, the “Con (Conclusion)” value [11] was “Ind (Indifference (Ind))” and the “Σ FIC” value [11] was 1.00-1.25. For the same compound, the “Con (Conclusion)” value [12] was “Ind (Indifference (Ind))”, the “Σ FIC” value [12] was 1.00-1.25 and the “Con (Conclusion)” value (S. aureus 101 [13]) was “Ind (Indifference (Ind))”. For the same compound, the “Σ FIC” value (S. aureus 101 [13]) was 1.00-1.25, the “Con (Conclusion)” value (S. pneumoniae 1/1 [14]) was “Ad (Additivity (Ad))” and the “Σ FIC” value (S. pneumoniae 1/1 [14]) was 0.75-1.13.
`CO[C@@]1(NC(=O)C(C(=O)O)c2ccc(O)cc2)C(=O)N2C(C(=O)O)=C(CSc3nnnn3C)CO[C@@H]21` (some centres unmarked) [Moxalactam] gave an MIC (S. aureus 101 [1]; Staphylococcus aureus, 101, 18 h, read-out: Minimum inhibitory concentrations (MIC)) of 4 µg/mL, an MIC (S. pneumoniae 1/1 [2]; Streptococcus pneumoniae, read-out: Minimum inhibitory concentrations (MIC)) of 4 µg/mL and an MIC ([3]; Haemophilus influenzae, ATCC49766, read-out: Minimum inhibitory concentrations (MIC)) of 1 µg/mL. The MIC ([4]; Klebsiella pneumoniae, ATCC33495, read-out: Minimum inhibitory concentrations (MIC)) was 8 µg/mL, the MIC ([5]; Moraxella catarrhalis, RA21, read-out: Minimum inhibitory concentrations (MIC)) was 2 µg/mL and the MIC ([6]; Staphylococcus aureus, ATCC25923, read-out: Minimum inhibitory concentrations (MIC)) was 1 µg/mL. For the same compound, the MIC ([7]; Streptococcus pneumoniae, ATCC49619, read-out: Minimum inhibitory concentrations (MIC)) was 1 µg/mL, the “Con (Conclusion)” value [8] was “Ind (Indifference (Ind))” and the “Σ FIC” value [8] was 1.06-1.50. For the same compound, the “Con (Conclusion)” value [9] was “Ad (Additivity (Ad))”, the “Σ FIC” value [9] was 0.75-1.25 and the “Con (Conclusion)” value [10] was “Ind (Indifference (Ind))”. For the same compound, the “Σ FIC” value [10] was 1.00-1.25, the “Σ FIC” value [11] was 0.56-1.25 and the “Σ FIC” value [12] was 1.00-1.25. For the same compound, the “Σ FIC” value (S. aureus 101 [13]) was 0.63-1.25 and the “Σ FIC” value (S. pneumoniae 1/1 [14]) was 1.13-1.50.
With Gentamicin the “Minimum inhibitory concentrations (MIC)” value (S. aureus 101 [1]) was over 128 µg/mL, the “Minimum inhibitory concentrations (MIC)” value (S. pneumoniae 1/1 [2]) was 32 µg/mL and the “Minimum inhibitory concentrations (MIC)” value [3] was 2 µg/mL. The “Minimum inhibitory concentrations (MIC)” value [4] was 1 µg/mL, the “Minimum inhibitory concentrations (MIC)” value [5] was 2 µg/mL and the “Minimum inhibitory concentrations (MIC)” value [6] was 0.5 µg/mL. The “Minimum inhibitory concentrations (MIC)” value [7] was 32 µg/mL, the “Con (Conclusion)” value [8] was “Ind (Indifference (Ind))” and the “Σ FIC” value [8] was 1.02-1.13. For the same compound, the “Con (Conclusion)” value [9] was “Ad (Additivity (Ad))”, the “Σ FIC” value [9] was 0.63-1.25 and the “Con (Conclusion)” value [10] was “Ind (Indifference (Ind))”. The “Σ FIC” value [10] was 1.00-1.25, the “Con (Conclusion)” value [11] was “Ind (Indifference (Ind))” and the “Σ FIC” value [11] was 2.05-2.48. For the same compound, the “Con (Conclusion)” value [12] was “Ad (Additivity (Ad))”, the “Σ FIC” value [12] was 0.75-1.13 and the “Con (Conclusion)” value (S. aureus 101 [13]) was “Ind (Indifference (Ind))”. For the same compound, the “Σ FIC” value (S. aureus 101 [13]) was 1.01-1.50, the “Con (Conclusion)” value (S. pneumoniae 1/1 [14]) was “Ind (Indifference (Ind))” and the “Σ FIC” value (S. pneumoniae 1/1 [14]) was 1.06-1.50.

Source: patent publication US20200038399A1, “FORMULATIONS, METHODS, KIT, AND DOSAGE FORMS FOR TREATING BACTERIAL INFECTION” (Motif BioSciences Inc., priority 2016, published 2020)
